21 compounds from patent publication US20140206681A1, “BTK INHIBITORS” (priority 2013, published 2014) can be followed below.

In test [1] the target is T1, BTK enzyme (recombinant full-length BTK, hBTK) (Homo sapiens, UniProt Q06187).
T1 construct: recombinant protein from baculovirus-transfected Sf9 cells: full-length BTK, 6HIS-tag cleaved; 6HIS (cleaved yes); made in house; host or cells: baculovirus-transfected Sf9 cells
The test is described as follows: BTK enzyme activity assay, LANCE TR-FRET. To be noted: 50 pM hBTK, 2 μM biotin-A5-peptide, 25 μM ATP; 60 min compound & enzyme incubation; read-out: IC50 BTK activity value. Format: biochemical. On the technique in general: Time-resolved FRET reads energy transfer from a long-lived donor to a nearby acceptor.

The subject of test [2] is HeLa cells. The test is described as follows: [3H]Adenosine uptake functional cellular assay. Format: cell-based. The note with it: Homo sapiens, HeLa, accumulation of [3H]adenosine into HeLa cells; compound range 10 μM to […]; read-out: Adenosine uptake inhibition IC50. As to the method: Compounds are also screened in an adenosine uptake functional cellular assay using the protocol described below. The adenosine uptake inhibition assay may be used to identify compounds with the potential for a negative cardiovascular side effect.
Adenosine uptake activity was determined by monitoring the accumulation of tritiated adenosine into HeLa cells (ATCC catalog # CCL-2) using a PMT-based radiometric detection instrument. […] These cells were incubated overnight at 37° C. in a humidified atmosphere with 5% (v/v) CO2. After this time the growth medium was removed and replaced with 40 μL assay medium comprising: Hanks balanced salts solution (HBSS; Thermo Fisher Catalog # SH30268.01)+5% (v/v) FBS. […] 40 μL of compound in the assay medium was dispensed into individual wells of the Cytostar-T plates and the plates were incubated for 30 minutes under ambient laboratory conditions. Following this incubation, 20 μL of 500 nM [^3H]adenosine (American Radiolabeled Chemicals Inc. Catalog # ART0287) was added in the assay medium and incubated for a further 60 minutes under ambient laboratory conditions. The amount of radiolabel accumulation was then determined using a Perkin Elmer Topcount NXT microplate reader. In brief, HeLa cells adhere to the bottom of the Cytostar-T plate, uptake of [^3H]adenosine into these cells brings the radiolabel into sufficient proximity to excite the scintillant in the base of the plates. These events are captured by single PMT, time-resolved coincidence counting. IC50 values were determined by 4 parameter robust fit of counts per second values vs. (Log10) compound concentrations.

T1 sequence (Q06187 whole entry): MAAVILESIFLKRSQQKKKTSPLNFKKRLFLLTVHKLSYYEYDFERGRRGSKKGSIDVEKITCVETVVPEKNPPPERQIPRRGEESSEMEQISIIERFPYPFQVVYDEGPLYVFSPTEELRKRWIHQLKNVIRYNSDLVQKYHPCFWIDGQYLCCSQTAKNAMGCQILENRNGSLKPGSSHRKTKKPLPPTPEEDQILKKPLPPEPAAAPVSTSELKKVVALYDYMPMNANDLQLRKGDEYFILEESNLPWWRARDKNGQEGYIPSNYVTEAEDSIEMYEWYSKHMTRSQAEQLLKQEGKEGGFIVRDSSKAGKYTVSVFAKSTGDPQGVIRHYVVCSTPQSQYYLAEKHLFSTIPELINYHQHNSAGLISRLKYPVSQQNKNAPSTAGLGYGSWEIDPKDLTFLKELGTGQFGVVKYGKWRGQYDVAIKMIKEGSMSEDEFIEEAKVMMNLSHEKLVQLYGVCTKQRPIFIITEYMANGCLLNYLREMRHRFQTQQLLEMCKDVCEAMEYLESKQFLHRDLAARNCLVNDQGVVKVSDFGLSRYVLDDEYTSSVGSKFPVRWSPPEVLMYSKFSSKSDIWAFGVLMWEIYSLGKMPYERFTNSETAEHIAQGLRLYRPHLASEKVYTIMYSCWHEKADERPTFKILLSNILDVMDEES

Broadly, the IC50 is the concentration needed to halve the response being measured. With `Nc1nccn2c([C@@H]3CC[C@@H]4CCC(=O)N4C3)nc(-c3ccc(C(=O)Nc4cc(C(F)(F)F)ccn4)cc3)c12` [Example 11, 4-(8-amino-3-((6R,8aR)-3-oxooctahydroindolizin-6-yl)imidazo[1,5-a]pyrazin-1-yl)-N-(4-(trifluoromethyl)pyridin-2-yl)benzamide], the figures for the IC50 in test [1] and in test [2] were 15.3 nM and 511 nM, respectively.
On to `N#Cc1ccnc(NC(=O)c2ccc(-c3nc([C@@H]4CC[C@H]5CCC(=O)N5C4)n4ccnc(N)c34)c(F)c2)c1` [Example 15, 4-{8-amino-3-[(6R,8aS)-3-oxooctahydroindolizin-6-yl]imidazo[1,5-a]pyrazin-1-yl}-N-(4-cyanopyridin-2-yl)-3-fluorobenzamide], for which the values for the IC50 in test [1] and in test [2] were 0.21 nM and 71.9 nM, respectively.
As for `Nc1nccn2c([C@@H]3CC[C@H]4CCC(=O)N4C3)nc(-c3ccc(C(=O)Nc4cc(C5CC5)ccn4)cc3F)c12` [Example 16, 4-{8-amino-3-[(6R,8aS)-3-oxooctahydroindolizin-6-yl]imidazo[1,5-a]pyrazin-1-yl}-N-(4-cyclopropylpyridin-2-yl)-3-fluorobenzamide], the IC50 was 0.2 nM in test [1] and 75.1 nM in test [2].
The matching figures for `CCc1ccnc(NC(=O)c2ccc(-c3nc([C@@H]4CC[C@H]5CCC(=O)N5C4)n4ccnc(N)c34)cc2)c1` [Example 18, 4-{8-amino-3-[(6R,8aS)-3-oxooctahydroindolizin-6-yl]imidazo[1,5-a]pyrazin-1-yl}-N-(4-ethylpyridin-2-yl)benzamide]: 0.16 nM and 63.5 nM.
Take `Nc1nccn2c([C@@H]3CC[C@H]4CCC(=O)N4C3)nc(-c3ccc(C(=O)Nc4cc(C5CC5)ccn4)cc3)c12` [Example 19, 4-{8-amino-3-[(6R,8aS)-3-oxooctahydroindolizin-6-yl]imidazo[1,5-a]pyrazin-1-yl}-N-(4-cyclopropylpyridin-2-yl)benzamide]: the values for the 50% inhibitory concentration (IC50) in test [1] and in test [2] were 0.18 nM and 233 nM, respectively.
As for `Nc1nccn2c([C@@H]3CC[C@H]4CCC(=O)N4C3)nc(-c3ccc(C(=O)Nc4nccc(C(F)(F)F)n4)cc3)c12` [Example 20], the IC50 was 2.2 nM in test [1] and 2380 nM in test [2].
Turning to `CC(F)(F)c1ccnc(NC(=O)c2ccc(-c3nc([C@@H]4CC[C@H]5CCC(=O)N5C4)n4ccnc(N)c34)c(F)c2)c1` [Example 21, 4-{8-amino-3-[(6R,8aS)-3-oxooctahydroindolizin-6-yl]imidazo[1,5-a]pyrazin-1-yl}-N-[4-(1,1-difluoroethyl)pyridin-2-yl]-3-fluorobenzamide], the half-inhibitory concentration (IC50) was determined as 0.21 nM in test [1] and 234 nM in test [2].
As for `Nc1nccn2c([C@@H]3CC[C@H]4CCC(=O)N4C3)nc(-c3ccc(C(=O)Nc4cc(C(F)(F)F)ccn4)cc3F)c12` [Example 23, 4-{8-amino-3-[(6R,8aS)-3-oxooctahydroindolizin-6-yl]imidazo[1,5-a]pyrazin-1-yl}-3-fluoro-N-[4-(trifluoromethyl)pyridin-2-yl]benzamide], the results for the IC50 in test [1] and in test [2] were 0.11 nM and 4.13 nM, respectively.
As for `Nc1nccn2c([C@@H]3CC[C@H]4CCC(=O)N4C3)nc(-c3ccc(C(=O)Nc4cc(C(F)(F)F)ccn4)c(F)c3)c12` [Example 24, 4-{8-amino-3-[(6R,8aS)-3-oxooctahydroindolizin-6-yl]imidazo[1,5-a]pyrazin-1-yl}-2-fluoro-N-[4-(trifluoromethyl)pyridin-2-yl]benzamide], the IC50 was 0.45 nM in test [1] and 67 nM in test [2].
The matching figures for `C[C@H]1OC(=O)N2C[C@H](c3nc(-c4ccc(C(=O)Nc5cc(C(F)(F)F)ccn5)cc4F)c4c(N)nccn34)CC[C@@H]12` [Example 31, 4-{8-amino-3-[(1R,6R,8aS)-1-methyl-3-oxohexahydro[1,3]oxazolo[3,4-a]pyridin-6-yl]imidazo[1,5-a]pyrazin-1-yl}-3-fluoro-N-[4-(trifluoromethyl)pyridin-2-yl]benzamide]: 0.096 nM and 104 nM.
As for `C[C@@H]1OC(=O)N2C[C@H](c3nc(-c4ccc(C(=O)Nc5cc(C(F)(F)F)ccn5)cc4F)c4c(N)nccn34)CC[C@@H]12` [Example 33, 4-{8-amino-3-[(1S,6R,8aS)-1-methyl-3-oxohexahydro[1,3]oxazolo[3,4-a]pyridin-6-yl]imidazo[1,5-a]pyrazin-1-yl}-3-fluoro-N-[4-(trifluoromethyl)pyridin-2-yl]benzamide], the IC50 is 0.17 nM in test [1] and 90.4 nM in test [2].
In the same order, the values of `COc1cc(C(=O)Nc2cc(C3CC3)ccn2)ccc1-c1nc([C@@H]2CC[C@H]3CCC(=O)N3C2)n2ccnc(N)c12` [Example 38, 4-{8-amino-3-[(6R,8aS)-3-oxooctahydroindolizin-6-yl]imidazo[1,5-a]pyrazin-1-yl}-N-(4-cyclopropylpyridin-2-yl)-3-methoxybenzamide] are 1.9 nM and 543 nM.
`Nc1nccn2c([C@@H]3CC[C@H]4COCC(=O)N4C3)nc(-c3ccc(C(=O)Nc4cc(C(F)(F)F)ccn4)cc3F)c12` [Example 39]: the values for the IC50 in test [1] and in test [2] were 0.12 nM and 57.4 nM, respectively.
Turning to `Nc1nccn2c([C@@H]3CC[C@H]4CNCC(=O)N4C3)nc(-c3ccc(C(=O)Nc4cc(C(F)(F)F)ccn4)cc3)c12` [Example 40, 4-{8-amino-3-[(7R,9aS)-4-oxooctahydro-2H-pyrido[1,2-a]pyrazin-7-yl]imidazo[1,5-a]pyrazin-1-yl}-N-[4-(trifluoromethyl)pyridin-2-yl]benzamide], the IC50 in test [1] came out at 0.22 nM; in test [2], 186 nM.
As for `Nc1nccn2c([C@H]3CC[C@@H]4CNCC(=O)N4C3)nc(-c3ccc(C(=O)Nc4cc(C(F)(F)F)ccn4)cc3)c12` [Example 41, 4-{8-amino-3-[(7S,9aR)-4-oxooctahydro-2H-pyrido[1,2-a]pyrazin-7-yl]imidazo[1,5-a]pyrazin-1-yl}-N-[4-(trifluoromethyl)pyridin-2-yl]benzamide], the values for the IC50 in test [1] and in test [2] were 4 nM and 793 nM, respectively.
The matching figures for `Nc1nccn2c([C@@H]3CC[C@H]4CCC(=O)N4C3)nc(-c3ccc(C(=O)Nc4cc(C(F)(F)F)ccn4)c(Cl)c3)c12` [Example 42, 4-{8-amino-3-[(6R,8aS)-3-oxooctahydroindolizin-6-yl]imidazo[1,5-a]pyrazin-1-yl}-2-chloro-N-[4-(trifluoromethyl)pyridin-2-yl]benzamide]: 0.52 nM and 88 nM.
Regarding `Nc1nccn2c([C@H]3CC[C@@H]4CCCC(=O)N4C3)nc(-c3ccc(C(=O)Nc4cc(C(F)(F)F)ccn4)cc3F)c12` [Example 44, 4-{8-amino-3-[(3S,9aS)-6-oxooctahydro-2H-quinolizin-3-yl]imidazo[1,5-a]pyrazin-1-yl}-3-fluoro-N-[4-(trifluoromethyl)pyridin-2-yl]benzamide], the results for the IC50 in test [1] and in test [2] were 0.095 nM and 88.8 nM, respectively.
In the same order, the values of `Nc1nccn2c([C@@H]3CC[C@H]4CCCC(=O)N4C3)nc(-c3ccc(C(=O)Nc4cc(C(F)(F)F)ccn4)cc3F)c12` [Example 45, 4-{8-amino-3-[(3R,9aR)-6-oxooctahydro-2H-quinolizin-3-yl]imidazo[1,5-a]pyrazin-1-yl}-3-fluoro-N-[4-(trifluoromethyl)pyridin-2-yl]benzamide] are 1.7 nM and 227 nM.
Take `C[C@@H]1OC(=O)N2C[C@H](c3nc(-c4ccc(C(=O)Nc5cc(C6CC6)ccn5)cc4)c4c(N)nccn34)CC[C@@H]12` [Example 46, 4-{8-amino-3-[(1S,6R,8aS)-1-methyl-3-oxohexahydro[1,3]oxazolo[3,4-a]pyridin-6-yl]imidazo[1,5-a]pyrazin-1-yl}-N-(4-cyclopropylpyridin-2-yl)benzamide]: the results for the IC50 in test [1] and in test [2] were 0.53 nM and 71.3 nM, respectively.
For `C[C@H]1OC(=O)N2C[C@H](c3nc(-c4ccc(C(=O)Nc5cc(C6CC6)ccn5)cc4)c4c(N)nccn34)CC[C@@H]12` [Example 47, 4-{8-amino-3-[(1R,6R,8aS)-1-methyl-3-oxohexahydro[1,3]oxazolo[3,4-a]pyridin-6-yl]imidazo[1,5-a]pyrazin-1-yl}-N-(4-cyclopropylpyridin-2-yl)benzamide], the results for the IC50 in test [1] and in test [2] were 0.17 nM and 31.8 nM, respectively.
Turning to `C[C@@H]1OC(=O)N2C[C@H](c3nc(-c4ccc(C(=O)Nc5cc(C(F)(F)F)ccn5)cc4)c4c(N)nccn34)CC[C@@H]12` [Example 48, 4-{8-amino-3-[(1S,6R,8aS)-1-methyl-3-oxohexahydro[1,3]oxazolo[3,4-a]pyridin-6-yl]imidazo[1,5-a]pyrazin-1-yl}-N-[4-(trifluoromethyl)pyridin-2-yl]benzamide], the IC50 is 0.14 nM in test [1] and 92.6 nM in test [2].
